From patent US4634706A, “Griseolic acid derivatives, and their use as enzyme inhibitors” (Sankyo Company Limited, priority 1983, dated 1987) come the findings set out here.

In data set [1] the test system is blood viscosity. Put plainly: Improvement in blood viscosity. The data set is classed as in vivo, male Wistar rats. The arrangement: key to blood viscosity, shear rates without significant rise after ligation: for each shear rate where no significant rise in […] was noted (P<0.05) between the pre-ligation and post-ligation values there is printed a single plus sign (+); ++++: no significant difference in viscosity between the pre-ligation and post-ligation values at any of the four shear rates. The following applies: for minimal effective dose: Rattus norvegicus, read-out: dose at which significant improvement (i.e. stabilisation) in blood viscosity was achieved. Here is the method: The test animals were male Wistar rats; they were employed in groups of five for each test. The rats were anaesthetized with pentobartibal and simultaneously the test compound was administered orally at the dose specified in Table 5 in a carboxymethyl cellulose suspension. Promptly, an incision was made in the neck and a 0.5 ml blood sample was collected from the jugular vein. The viscosity of this sample was determined by means of a rotational viscometer.
Thirty minutes after oral administration, the common carotid artery was ligated bilaterally. One hour thereafter (i.e. 90 minutes after oral administration), a further 0.5 ml blood sample was collected from the jugular vein and its viscosity was determined in the same manner.
The mean blood viscosity of each test animal and its standard deviation were calculated for each of the four shear rates (37.5, 75, 150 and 375 s^-1) of the rotational viscometer. The pre-ligation and post-ligationvalues of each group (i.e. the change over a period of 60 minutes) were analysed by the statistical t-test. The results are reported in Table 5 as follows: for each shear rate where no significant rise in […] was noted (P<0.05) between the pre-ligation and post-ligation values there is printed a single plus sign (+). Thus, for example, if there was no significant difference in viscosity between the pre-ligation and post-ligation values at any of the four shear rates, the results will be ++++.

Data set [2] concerns the target cAMP PDE. Briefly: Phosphodiesterase (PDE) inhibitory activity, cAMP substrate. The following applies: for pIC50: 0.14 μM 14C-labeled cAMP, pH 8.0, 30° C., 20 minutes, crude enzyme from rat brains, read-out: I50 cAMP PDE. It is filed as biochemical, rat. As for the experimental part: (§1) The test was carried out following essentially the method of A. L. Pichard and Y. U. Chung [Journal of Biological Chemistry, 251, 5726-5737 (1976)]. A crude enzymatic solution derived from rat brains was used as the source of cAMP PDE.
(§2) ^14 C-labeled cAMP was used as the substrate. It was employed in a 0.2M Tris-hydrochloric acid buffer solution (pH 8.0) in an amount sufficient to provide a final concentration of 0.14 μM. "Tris" is tris(hydroxymethyl)aminomethane. The substrate solution was mixed with an appropriate amount of the compound under test dissolved in 2-5 μl of dimethyl sulfoxide and with 20 μl of a snake venom solution and 40 μl of the crude enzyme solution. Sufficient Tris-hydrochloric acid buffer was added to make a total volume of 100 μl. The mixture was allowed to react at 30° C. for 20 minutes. At the end of this time, the reaction mixture was treated with an Amberlite (trade mark) IRP-58 resin and the level of residual adenosine radioactivity in the product was determined.

For data set [3], the target named is cGMP PDE. Put plainly: Phosphodiesterase (PDE) inhibitory activity, cGMP substrate. It is filed as biochemical. The following applies: cGMP as substrate, crude enzyme from rat brains; read-out: I50 cGMP PDE. Here is the method:
as §1, §2
The experiment was repeated, except that cyclic guanosine monophosphate (cGMP) was employed as the substrate instead of cAMP. The I50 value against cGMP PDE was also calculated.

For data set [4], the system named is cerebral blood flow. Briefly: Improving cerebral blood flow. The data set is classed as in vivo, rabbit. From the text:
The "duration (T1/2)" is the time in minutes required for the increase in cerebral blood flow to reduce by one half.

The subject of data set [5] is erythrocytes. Briefly: Effect on recovery of erythrocyte flexibility reduced by acidosis. The data set is classed as in vivo, rat. The following applies: 50 mg/kg orally, blood pH 5.1, P < 0.05. As for the experimental part:
Mature male rats were employed in this experiment in groups of five for each test. The compound under test was suspended in an aqueous solution of carboxymethylcellulose and administered orally. Two hours after administration, the rats were anaesthetized with pentobarbital and a 5 ml blood sample was taken from the heart. Its pH was adjusted to 5.1 and the sample was allowed to stand. The fluidity of the erythrocytes was tested by a slightly modified version of the method reported in the Journal of Clinical Pathology, 29, 855-858 (1976). Control animals were treated similarly, except that the carboxymethylcellulose solution contained no active compound. The results are reported as the mean values for each group plus or minus the statistical error and the statistical significance was calculated by comparison with the control group.

Data set [6] relates to rats. Put plainly: Toxicity (mortality of male Fisher rats, daily doses for four days). The following applies: 100 mg/kg daily. The data set is classed as in vivo, male rats of the Fisher strain. As for the experimental part:
The compounds under test were griseolic acid and Compounds No. 26 and 51 from the list of compounds of the invention set out hereinabove. The test animals were male rats of the Fisher strain. The rats were employed in groups of five for each test.
The compounds under test were administered at single daily doses of 50 mg/kg or 100 mg/kg throughout the four days of the test.

Data set [7] relates to righting reflex and spontaneous locomotive activity. Put plainly: Brain concussive test. It is filed as in vivo. To be noted: 10 mg/kg intraperitoneally, 17 mice. As for the experimental part:
The test compound, suspended in an aqueous solution of carboxymethylcellulose, was administered intraperitoneally to mice. After 30 minutes, a 16 g weight was dropped from a height of 50 cm onto the head of each mouse, and the time was measured for each mouse to recover its righting reflex and spontaneous locomotive activity.
A similar experiment was carried out as a control, using the carboxymethylcellulose solution without any active compound.
The results are reported in Table 6 as the mean time (in seconds) plus or minus the statistical error. There were 20 mice in the control group and 17 mice in the group to which the test compound was administered.

The subject of data set [8] is brain of rats with cerebral ischaemia. Briefly: Effect on sugar and high energy phosphate metabolism in the brain of rats with cerebral ischaemia. To be noted: 1 mg/kg or 10 mg/kg intraperitoneal. It is filed as in vivo, rat. As for the experimental part: Cerebral ischaemia was induced in rats and the sugar and high energy phosphate metabolism in the brain was investigated.
Both carotid arteries of the test rats were ligated and, at the same time, the compound under test was administered by intraperitoneal injection. The amounts of sugars and metabolic products thereof (glucose and lactic acid) and high energy phosphate (ATP-adenosine triphosphate) in the brain were determined by the method of Lowry and Passonneau (A flexible system of enzymatic analysis, Academic Press, New York, 1972). When Compound No. 131 was administered at levels of 1 mg/kg or 10 mg/kg, there was observed an increase in glucose levels, a decrease in lactic acid levels and an increase in ATP levels in the rats with cerebral ischaemia.

Data set [9] has as its system anoxia-induced cerebral dysfunction. Put plainly: Promotion of recovery from anoxia-induced cerebral dysfunction (EEG recovery). It is filed as in vivo, rat. The following applies: breathing terminated 120 seconds. As for the experimental part: In this experiment, the breathing of a rat was terminated for sufficient time for its EEG (electroencephalograph) trace to become flat and the time required for the EEG to show further activity after breathing had restarted was determined.
The rat was immobilized by the administration of pancuronium bromide, and its spontaneous EEG was recorded. After the rat had been roused from anaesthesia, the compound under test suspended in an aqueous solution of carboxymethylcellulose was administered intraperitoneally to the rat. Throughout the experiment, the rat was caused to breathe artificially; 30 minutes after administration of the test compound, artificial breathing was terminated for 120 seconds. After breathing again commenced, the time required for the EEG to recover (the recovery time) was determined.
A control experiment was carried out in which a carboxymethylcellulose suspension alone was administered with no active compound.
The recovery time is reported in the Table in seconds as the mean of the recovery times of all of the animals in the relevant test group plus or minus the statistical error.

pIC50: −log10 of the molar value. Some results are limits rather than exact numbers.

With `CCC(=O)Nc1ncnc2c1ncn2C1OC2=CC(C(=O)OC(c3ccccc3)c3ccccc3)(C(OC(=O)CC)C(=O)OC(c3ccccc3)c3ccccc3)OC2C1OC(=O)CC` (stereo not drawn) [Compound No. 10, dibenzhydryl N^6,O^2',O^7' -tripropionylgriseolate], the “blood viscosity, shear rates without significant rise after ligation” value in [1] (30 mg/kg oral) and in data set [1] (50 mg/kg oral) was “++++” in each case. Also, in data set [1] (oral), the minimal effective dose is ≥ 50 mg/kg.
Regarding `O=C(O)CC1(C(=O)O)C=C2OC(n3cnc4c(=O)[nH]cnc43)C(O)C2O1` (stereo not drawn) [Compound No. 138, 6-desamino-7'-deoxy-6-hydroxygriseolic acid], in [2], the pIC50 was 6.85. For the same compound, in data set [3], the pIC50 is 7.30. In addition, in data set [4] (10 mg/kg), the “Duration (T 1/2)” value is > 1 h and the “Increase in cerebral blood flow (Vp), ratio to papaverine 1 mg/kg” value (“Increase … ratio to papaverine 1 mg/kg” for short) came out at 5.5.
`CC(=O)OC1C2OC(C(=O)OC(c3ccccc3)c3ccccc3)(C(OC(C)=O)C(=O)OC(c3ccccc3)c3ccccc3)C=C2OC1n1cnc2c(=O)[nH]cnc21` (stereo not drawn) [Compound No. 71, dibenzhydryl O^2',O^7' -diacetyl-6-desamino-6-hydroxygriseolate]: the “Total number of passing erythrocytes × 10^9” value in data set [5] is 3.00 ± 0.16 × 10^9. Further, in [4] (10 mg/kg), the “Duration (T 1/2)” value was > 1 h and the “Increase … ratio to papaverine 1 mg/kg” value stood at 3.0.
On to `Nc1ncnc2c1ncn2C1OC2=CC(C(=O)O)([C@@H](O)C(=O)O)OC2[C@H]1O` (stereo partly drawn) [Griseolic acid, griseolic acid], for which the “mortality after day 3” value in data set [6] (after day 3) is 3/5. Further, the “mortality for the first two days” value in data set [6] (first two days) is given as 0/5. Moreover, in data set [6] (four days, male Fisher rats), the “mortality at the end of the test” value was 3/5. Moreover, in [2] (in words), the “ability to inhibit cAMP phosphodiesterase” value was “has the ability to inhibit the activity of cyclic adenosine monophosphate (cAMP) phosphodiesterase (PDE)”.
Regarding `CC[C@]12CCCN3CCc4c(n(c5ccccc45)[C@@](O)(C(=O)OC)C1)[C@@H]32` [Vincamine, reference compound], the “Duration (T 1/2)” value came out at 0.0533 h in data set [4] (1 mg/kg) and 0.035 h in data set [4] (2.5 mg/kg). Moreover, the “Increase … ratio to papaverine 1 mg/kg” value in [4] (1 mg/kg) was found to be 1.7; in data set [4] (2.5 mg/kg), 3.2.
For `COC(=O)C1=C(C)NC(C)=C(C(=O)OCCN(C)Cc2ccccc2)C1c1cccc([N+](=O)[O-])c1` (stereo not drawn) [Nicardipine, reference compound], in data set [4] (0.01 mg/kg), the “Duration (T 1/2)” value was 0.233 h and the “Increase … ratio to papaverine 1 mg/kg” value is given as 3.2.
For `Nc1ncnc2c1ncn2C1OC23OC(C(=O)OC(c4ccccc4)c4ccccc4)C(C(=O)OC(c4ccccc4)c4ccccc4)(OC2C1O)C3Br` (stereo not drawn) [Compound No. 202, dibenzhydryl 4',7'-anhydro-5'α-bromo-4'α-hydroxygriseolate], the “Recovery time, righting reflex” value in [7] came to 20.9 ± 2.9 s. In addition, the “Recovery time, spontaneous locomotive activity” value in data set [7] (P < 0.05) stood at 72.8 ± 15.7 s. For the same compound, the “blood viscosity, shear rates without significant rise after ligation” value in [1] (10 mg/kg oral) is recorded as “+”. Besides, in [1] (oral, in words), the “dose levels at which significant improvement (i.e. stabilisation) in blood viscosity was achieved” value was “all dose levels”.
Take `O=C(Nc1ncnc2c1ncn2C1OC2=CC(C(=O)O)([C@@H](OC(=O)c3ccccc3)C(=O)O)OC2[C@H]1OC(=O)c1ccccc1)c1ccccc1` (stereo partly drawn) [Compound No. 131, N^6,O^2',O^7' -tribenzoylgriseolic acid]: the “Total number of passing erythrocytes × 10^9” value in data set [5] is listed as 3.30 ± 0.28 × 10^9. Besides, the “blood viscosity, shear rates without significant rise after ligation” value in [1] (30 mg/kg oral) was “+”; in data set [1] (100 mg/kg oral) it was “++++”. Besides, in [1] (oral), the minimal effective dose is ≥ 30 mg/kg. Further, the “ATP levels in brain” value in [8] is listed as “increase”. Also, the “glucose levels in brain” value in data set [8] was “increase”. Further, in data set [8], the “lactic acid levels in brain” value is listed as “decrease”. Further, the Recovery time in data set [9] (10 mg/kg intraperitoneally, n=8) came out at 14.5 ± 1.2 s; in data set [9] (30 mg/kg intraperitoneally, n=8, P < 0.05) it was 13.8 ± 1.3 s.
For the compound `O=C(O)[C@H](O)C1(C(=O)O)C=C2OC(n3cnc4c(S)ncnc43)[C@H](O)C2O1` (stereo partly drawn) [Compound No. 54, 6-desamino-6-mercaptogriseolic acid], the pIC50 in [2] is 4.72; in data set [3] it was 5.04. The minimal effective dose in data set [1] (oral) was ≥ 50 mg/kg.
For `CC(=O)O[C@H](C(=O)O)C1(C(=O)O)C=C2OC(n3cnc4c(N)ncnc43)[C@H](O)C2O1` (stereo partly drawn) [Compound No. 141, 7'(S)-acetoxy-7'-deoxygriseolic acid], the pIC50 in data set [2] is 6.66; in data set [3], 5.98. Further, the “Duration (T 1/2)” value in data set [4] (10 mg/kg) was > 1 h. In addition, in data set [4] (10 mg/kg), the “Increase … ratio to papaverine 1 mg/kg” value amounted to 9.2.
The matching figures for `Nc1ncnc2c1ncn2C1OC2=CC(CC(=O)O)(C(=O)O)OC2[C@H]1O` (stereo partly drawn) [Compound No. 133, 7'-deoxygriseolic acid]: 6.85, 5.96, > 1 h and 10.
For the compound `COc1ccc(Cc2nccc3cc(OC)c(OC)cc23)cc1OC` [Papaverine, papaverine, reference compound], in [4] (1 mg/kg), the “Change in blood pressure (pascals)” value was -1040 pascals and the “Change in blood pressure mm Hg” value was -7.8 mm Hg.
As for `Nc1ncnc2c1ncn2C1OC2=CC(C(=O)O)(C(Cl)C(=O)O)OC2[C@H]1O` (stereo partly drawn) [Compound No. 88, 7'-chloro-7'-deoxygriseolic acid], the pIC50 is 5.82 in [2] and 4.83 in [3].
